Results as given in patent publication US10266497B2 (ABIDE THERAPEUTICS, INC., priority 2017, dated 2019).

Tests used:
MAGL [1] = molecular target: T1, MAGL (Homo sapiens, UniProt Q99685); assay: In vitro competitive activity-based protein profiling, MAGL, human; settings: for inhibition at 1 µM: read-out: MAGL % inh. 1 μM (human)
T1 sequence (Q99685 1-303): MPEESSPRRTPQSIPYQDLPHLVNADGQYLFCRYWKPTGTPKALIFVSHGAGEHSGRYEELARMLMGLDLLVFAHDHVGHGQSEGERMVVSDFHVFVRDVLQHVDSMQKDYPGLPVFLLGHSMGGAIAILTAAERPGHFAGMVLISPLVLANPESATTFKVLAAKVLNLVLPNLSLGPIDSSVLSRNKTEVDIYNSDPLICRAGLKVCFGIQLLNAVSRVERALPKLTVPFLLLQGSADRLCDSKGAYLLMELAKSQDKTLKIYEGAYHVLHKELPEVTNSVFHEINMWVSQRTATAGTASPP

MAGL [2] = molecular target: T2, MAGL (Mus musculus, UniProt O35678); assay: In vitro competitive activity-based protein profiling, MAGL, mouse; settings: read-out: MAGL % inh. 1 μM (mouse)
T2 sequence (O35678 1-303): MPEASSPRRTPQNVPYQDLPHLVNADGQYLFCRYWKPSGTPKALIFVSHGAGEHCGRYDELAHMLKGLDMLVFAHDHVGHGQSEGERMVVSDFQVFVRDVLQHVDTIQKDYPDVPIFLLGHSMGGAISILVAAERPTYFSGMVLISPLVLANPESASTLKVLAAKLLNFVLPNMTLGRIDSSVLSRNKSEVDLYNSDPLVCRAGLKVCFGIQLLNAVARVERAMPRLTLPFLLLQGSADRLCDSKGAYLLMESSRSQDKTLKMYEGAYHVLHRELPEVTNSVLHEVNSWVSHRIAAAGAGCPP

| Compound | inhibition at 1 µM (MAGL [1]) [%] | inhibition at 1 µM (MAGL [2]) [%] | IC50 (MAGL [1]) [nM] |
| --- | --- | --- | --- |
| O=C(O)c1ccn(C(=O)N2C[C@H]3C[C@H](Oc4cccc(-c5ccccn5)c4)C[C@H]3C2)n1 [Example 242, 1-(trans-5-(3-(pyridin-2-yl)phenoxy)octa-hydrocyclopenta[c]pyrrole-2-carbonyl)-1H-pyrazole-3-carboxylic acid] | > 75 | > 75 |  |
| O=C(O)c1ccn(C(=O)N2C[C@H]3C[C@H](Oc4ccccc4-c4cccnc4)C[C@H]3C2)n1 [Example 244, 1-(trans-5-(2-(pyridin-3-yl)phenoxy)octa-hydrocyclopenta[c]pyrrole-2-carbonyl)-1H-pyrazole-3-carboxylic acid] | > 75 | > 75 |  |
| Cc1cc(-c2ccccc2)ccc1CN1CCN(C(=O)n2ccc(C(=O)O)n2)[C@@H](C)C1 [Example 246, (S)-1-(2-methyl-4-((3-methyl-[1,1′-biphenyl]-4-yl)methyl)piperazine-1-carbonyl)-1H-pyrazole-3-carboxylic acid] | > 75 | > 75 | 100 to 1000 |
| O=C(O)c1ccn(C(=O)N2C[C@H]3C[C@H](Oc4cccc(-c5ccnnc5)c4)C[C@H]3C2)n1 [Example 248, 1-(trans-5-(3-(pyridazin-4-yl)phenoxy)octa-hydrocyclopenta[c]pyrrole-2-carbonyl)-1H-pyrazole-3-carboxylic acid] | 25 to 50 | 0 to 25 |  |
| C[C@@H]1CN(Cc2ccc(-c3ccccc3)cc2F)CCN1C(=O)n1ccc(C(=O)O)n1 [Example 253, (R)-1-(4-((3-fluoro-[1,1′-biphenyl]-4-yl)methyl)-2-methylpiperazine-1-carbonyl)-1H-pyrazole-3-carboxylic acid] | > 75 | > 75 |  |
| Cc1cc(O[C@H]2C[C@@H]3CN(C(=O)n4ccc(C(=O)O)n4)C[C@@H]3C2)ccc1C(F)(F)F [Example 254, 1-(trans-5-(3-methyl-4-(trifluoromethyl)phenoxy)octahydro-cyclopenta[c]pyrrole-2-carbonyl)-1H-pyrazole-3-carboxylic acid] | > 75 | > 75 |  |
| O=C(O)c1ccn(C(=O)N2C[C@H]3C[C@@H](OCc4cccc(C(F)(F)F)c4)C[C@H]3C2)n1 [Example 255, 1-(trans-5-((3-(trifluoromethyl)benzyl)oxy)octa-hydrocyclopenta[c]pyrrole-2-carbonyl)-1H-pyrazole-3-carboxylic acid] | > 75 | > 75 | 100 to 1000 |
| CN(Cc1cccc(C(F)(F)F)c1)C1(C)CCN(C(=O)n2ccc(C(N)=O)n2)CC1 [Example 258, 1-(4-methyl-4-(methyl(3-(trifluoromethyl)benzyl)amino)piper-idine-1-carbonyl)-1H-pyrazole-3-carboxamide] | > 75 | > 75 |  |
| C[C@H]1C[C@H](N(C)Cc2cccc(C(F)(F)F)c2)CCN1C(=O)n1ccc(C(N)=O)n1 [Example 259, 1-((2S,4R)-2-methyl-4-(methyl(3-(trifluoromethyl)benzyl)amino)piperidine-1-carbonyl)-1H-pyrazole-3-carboxamide] | > 75 | > 75 |  |
| O=C(O)c1ccn(C(=O)N2C[C@H]3C[C@H](Oc4cccc(-c5nccs5)c4)C[C@H]3C2)n1 [Example 261, 1-(trans-5-(3-(thiazol-2-yl)phenoxy)octa-hydrocyclopenta[c]pyrrole-2-carbonyl)-1H-pyrazole-3-carboxylic acid] | > 75 | > 75 |  |
| O=C(O)c1ccn(C(=O)N2CCN(Cc3ccc(F)c(Oc4ccccc4)c3)CC2)n1 [Example 263, 1-(4-(4-fluoro-3-phenoxybenzyl)pi-perazine-1-carbonyl)-1H-pyrazole-3-carboxylic acid] | > 75 | > 75 |  |
| O=C(O)c1ccn(C(=O)N2CCN(Cc3cccc(Oc4ncccc4F)c3)CC2)n1 [Example 264, 1-(4-(3-((3-fluoropyridin-2-yl)oxy)benzyl)piper-azine-1-carbonyl)-1H-pyrazole-3-carboxylic acid] | > 75 | > 75 |  |
| O=C(O)c1ccn(C(=O)N2CCN(Cc3cccc(Oc4ccc(F)cn4)c3)CC2)n1 [Example 266, 1-(4-(3-((5-fluoropyridin-2-yl)oxy)benzyl)piper-azine-1-carbonyl)-1H-pyrazole-3-carboxylic acid] | > 75 | > 75 |  |
| O=C(O)c1ccn(C(=O)N2C[C@H]3C[C@H](Oc4ccccc4C4CCOCC4)C[C@H]3C2)n1 [Example 268, 1-(trans-5-(2-(tetrahydro-2H-pyran-4-yl)phenoxy)octa-hydrocyclopenta[c]pyrrole-2-carbonyl)-1H-pyrazole-3-carboxylic acid] | > 75 | > 75 |  |
| O=C(O)c1nn(C(=O)N2CCN(Cc3cccc(-c4cncnc4)c3)CC2)cc1Cl [Example 270, 4-chloro-1-(4-(3-(pyrimidin-5-yl)benzyl)piperazine-1-carbonyl)-1H-pyrazole-3-carboxylic acid] | > 75 | > 75 |  |
| C[C@H]1CN(Cc2cc(Cl)cc(C(F)(F)F)c2)CCN1C(=O)n1ccc(C(N)=O)n1 [Example 271, (S)-1-(4-(3-chloro-5-(trifluoromethyl)benzyl)-2-methylpiperazine-1-carbonyl)-1H-pyrazole-3-carboxamide] | > 75 | > 75 |  |
| C[C@@H]1CN(Cc2cc(Cl)cc(C(F)(F)F)c2)CCN1C(=O)n1ccc(C(N)=O)n1 [Example 272, (R)-1-(4-(3-chloro-5-(trifluoromethyl)benzyl)-2-methylpiperazine-1-carbonyl)-1H-pyrazole-3-carboxamide] | > 75 | > 75 |  |
| O=C(O)c1ccn(C(=O)N2CCN(Cc3ccc(Cl)c(-c4nccs4)c3)CC2)n1 [Example 274, 1-(4-(4-chloro-3-(thiazol-2-yl)benzyl)piperazine-1-carbonyl)-1H-pyrazole-3-carboxylic acid] | > 75 | > 75 |  |
| O=C(O)c1ccn(C(=O)N2CCC(OCc3cc(Cl)cc(C(F)(F)F)c3)CC2)n1 [Example 275, 1-(4-((3-chloro-5-(trifluoromethyl)benzyl)oxy)piper-idine-1-carbonyl)-1H-pyrazole-3-carboxylic acid] | > 75 | > 75 |  |
| O=C(O)c1ccn(C(=O)N2CCC(OCc3ccc(Cl)c(C(F)(F)F)c3)CC2)n1 [Example 276, 1-(4-((4-chloro-3-(trifluoromethyl)benzyl)oxy)piper-idine-1-carbonyl)-1H-pyrazole-3-carboxylic acid] | > 75 | > 75 |  |
| O=C(O)c1ccn(C(=O)N2CCC(OCc3cc(Cl)ccc3C(F)(F)F)CC2)n1 [Example 277, 1-(4-((5-chloro-2-(trifluoromethyl)benzyl)oxy)piper-idine-1-carbonyl)-1H-pyrazole-3-carboxylic acid] | > 75 | > 75 |  |
| O=C(O)c1ccn(C(=O)N2C[C@H]3C[C@H](OCc4cccc(-c5ccccc5)c4)C[C@H]3C2)n1 [Example 278, 1-(trans-5-([1,1′-biphenyl]-3-ylmethoxy)octa-hydrocyclopenta[c]pyrrole-2-carbonyl)-1H-pyrazole-3-carboxylic acid] | > 75 | > 75 |  |
| O=C(O)c1ccn(C(=O)N2C[C@H]3C[C@@H](OCc4cccc(-c5ccccc5)c4)C[C@H]3C2)n1 [Example 279, 1-(cis-5-([1,1′-biphenyl]-3-ylmethoxy)octa-hydrocyclopenta[c]pyrrole-2-carbonyl)-1H-pyrazole-3-carboxylic acid] | > 75 | > 75 |  |
| Cc1cn(C(=O)N2C[C@H]3C[C@H](Oc4cccc(-c5ccccc5)c4)C[C@H]3C2)nc1C(=O)O [Example 280, 1-(trans-5-([1,1′-biphenyl]-3-yloxy)octahydro-cyclopenta[c]pyrrole-2-carbonyl)-4-methyl-1H-pyrazole-3-carboxylic acid] | > 75 | > 75 |  |
| Cc1cn(C(=O)N2C[C@H]3C[C@H](Oc4ccccc4-c4ccccc4)C[C@H]3C2)nc1C(=O)O [Example 281, 1-(trans-5-([1,1′-biphenyl]-2-yloxy)octahydro-cyclopenta[c]pyrrole-2-carbonyl)-4-methyl-1H-pyrazole-3-carboxylic acid] | > 75 | > 75 |  |
| COc1ccc(Cl)cc1CN1CCC2(CCN(C(=O)n3ccc(C(=O)O)n3)CC2)C1 [Example 282, 1-(2-(5-chloro-2-methoxybenzyl)-2,8-diazaspiro[4.5]decane-8-carbonyl)-1H-pyrazole-3-carboxylic acid] | 50 to 75 | 0 to 25 |  |
